Reference: US8974837B2, “Pharmaceutical composition comprising an extract of Pseudolysimachion longifolium and the catalpol derivatives isolated therefrom having antiinflammatory, antiallergic and antiasthmatic activity” (Korea Research Institute of Bioscience and Biotechnology, priority 2005, dated 2015)

Experiments:
Promyelotic HL-60 cells = test: MTT assay, cytotoxic effect on HL-60 cells; assay type: cell-based
Description: (§1) To investigate the cytotoxic effect of inventive extract of P. longifolium extract and the compound isolated therefrom was determined by (3-[4,5-dimethylthiazol-2-yl]-2,5-diphenyl tetrazolium bromide(MTT) assay method (Wang Z et al., Biol., Pharm. Bull., 24, pp 159-162, 2001).
(§2) Promyelotic HL-60 cells (HL-18103, 5×10^5 cells/ml) were seeded in 96-well plates under NGF-free condition. After 24 hours incubation, the cells were treated with the mixture of samples dissolved in 10 μl of DMSO and 10 μl of MTT solution (5 mg/ml), and incubated for 4 hours under similar condition. 4 hours later, MTT was removed and 100 μl of DMSO was dropped into each well to dissolve crystals. At 570 nm, UV absorbance was measured by microplate reader (BIO-RAD, U.S.A.) to calculate the cell viability.

[1] = MTT assay, cytotoxic effect on HL-60 cells; assay type: cell-based; details: human, HL-60 promyelocytic cells, read-out: Cell viability (%)
Description: as §1, §2

OVA-challenged mice [2] = test: OVA-induced eosinophilia: inflammatory cell counts in bronchoalveolar lavage fluid; assay type: in vivo, BALB/c mice; details: from OVA-treated control group; 48 hours after last challenge
Description: (§3) Specific pathogen-free female BALB/c mice aged 8-10 weeks, which were routinely screened serologically for relevant respiratory pathogens, were purchased from ORIENT Co Ltd (Seoul, Korea).
(§4) Following treatment: (1) sham-sensitization plus challenge with phosphate-buffered saline (PBS; ipNeb); (2) sensitization plus challenge with OVA (ovalbumin: Sigma A5503; Sigma, St. Louis, Mo.)(ipNeb); (3) sensitization with OVA (i.p.) plus challenge with OVA (Neb) and samples (extract of P. longifolium or montelukast) was performed to Group of mice (n=5). Briefly, mice were sensitized by intraperitoneal injection of 20 μg OVA, which was emulsified with 2 mg aluminum hydroxide in 100 μl of PBS buffer (pH 7.4) on days 0 and 14. The mice were challenged through the airways with OVA (1% in PBS) for 20 min using an ultrasonic nubuilizer (NE-U12; Omron Corp., Tokyo, Japan) on days 28, 29 and 30 after the initial sensitization. The mice were sacrificed 48 h after the last challenge (day 32) to determine the suppression effect of extract of P. longifolium or verproside on the airways of allergic asthma.
(§5) The extract of P. longifolium, and verproside were suspended in PBS and administered intragastrically using a 25-gauge stainless steel blunt feeding needle 1 h before each challenge, and control animals were exposed only on the PBS solution. As a positive control, montelukast (MSD Korea Ltd., Seoul, Korea) was treated with the same procedure in the experiment.
The mice were sacrificed with an overdose of pentobarbital (Sigma P3761) […] after the last challenge, and a tracheotomy was performed. After ice-cold 0.5 ml of PBS was instilled into the lungs, bronchoalveolar lavage fluid (BALF) was obtained by aspiration three times (total 1.5 ml) via tracheal cannulation (Yamazaki T, J. Jap. Bot., 43, pp 117-24, 1968)
The total inflammatory cell number was assessed by counting cells in at least five squares of a hemocytometer after excluding dead cells confirmed by staining with trypan blue (Daigle I. et al., Swiss Med Wkly, 131, pp 231-7, 2001). 100 μl of BALF was loaded onto a slide and centrifuged (200×g, 4° C., 10 min) to fix the cells onto the slide using a cytospine machine (Hanil Science Industrial, Korea). The cells were stained by Diff-Quick® Stain reagents (Sysmex, Cat No. 38721, Switzerland) according to the manufacturer's instructions. Statistical significance was determined by Student's two-tailed t-test for independent means and the critical level for significance was set at P<0.05.
To evaluate the suppression of verproside on the eosinophilia in OVA-challenged mice, the recruited cells in BALF were counted 48 hours after the last challenge. OVA caused a marked influx of leucocytes into the BALF from a PBS control group.

IL-13 = test: Measurement of IL-13 in BALF by ELISA in OVA-induced asthmatic mice; assay type: in vivo, mouse; details: from OVA-challenged group; 48 hours after last challenge
Description: (§6) Following treatment: (1) sham-sensitization plus challenge with phosphate-buffered saline (PBS; ipNeb); (2) sensitization plus challenge with OVA (ovalbumin: Sigma A5503; Sigma, St. Louis, Mo.)(ipNeb); (3) sensitization with OVA (i.p.) plus challenge with OVA (Neb) and samples (extract of P. longifolium or montelukast) was performed to Group of mice (n=5). Briefly, mice were sensitized by intraperitoneal injection of 20 μg OVA, which was emulsified with 2 mg aluminum hydroxide in 100 μl of PBS buffer (pH 7.4) on days 0 and 14. […]
(§7) Complementary capture and detection antibody pairs for mouse IgE antibodies were purchased from PharMingen (San Diego, Calif.), and the IgE enzyme-linked immunosorbent assay (ELISA) was performed according to the manufacturer's directions. […] IgE levels in each sample were measured from optical density readings at 450 nm, and IgE concentrations were calculated from a standard curve that was generated using recombinant IgE (5-2,000 ng/ml). The amount of IL-4 and IL-13 contained in BALF was measured with a specific mouse ELISA kit (R&D Systems; Minneapolis, Minn.). […]
(§8) To determine the effect of verproside on cytokine release in the OVA-induced asthmatic mice, the levels of cytokines (IL-4 and IL-13) in BALF were measured using ELISA 48 hours after the last challenge. […]

IL-4 = test: Measurement of IL-4 in BALF by ELISA in OVA-induced asthmatic mice; assay type: in vivo, mouse; details: from OVA-challenged group; 48 hours after last challenge
Description: as §6, §7, §8

OVA-challenged mice [3] = test: Lung histology (H&E and PAS staining) in OVA-challenged mice; assay type: in vivo, BALB/c mice; details: for mucus area score: PAS, five-point system 0-4, OVA-treated mice 3.60±0.64, FIG. 5
Description: as §4, §5
To estimate the suppressive effect of verproside on the eosinophilia, lung tissues were collected 48 hours after the last challenge. The lung tissue was fixed for 24 h in 10% neutral-buffered formalin. After being embedded in paraffin, it is sliced into 4-μm thickness of sections and the tissue was stained with H&E solution (hematoxylin; Sigma MHS-16 and eosin, Sigma HT110-I-32).
In Periodic acid Schiff (PAS) staining, mucus overproduction in the OVA-treated mice was clearly observed as a violet color in the bronchial airways compared with the normal mice. […] Goblet-cell hyperplasia in the airway epithelium was quantified based on a five-point system: 0, no goblet cells; 1, <25% of the epithelium; 2, 25-50% of the epithelium; 3, 50-75% of the epithelium; 4, >75% of the epithelium. For each mouse, five airway sections that were randomly distributed throughout the left lung were analysed, and their average scores were calculated. Quantitative analysis of mucus production was performed using an image analyzer (Leica Microsystem Imaging solution Ltd.; Cambridge, UK).

IgE = test: Measurement of IgE by ELISA in plasma and BALF of OVA-challenged mice; assay type: in vivo, mouse; details: for IgE level in BALF: OVA-treated mice 59.4±38.4; for IgE level in plasma: OVA-treated mice 85.6±17.3
Description: as §4, §5
Complementary capture and detection antibody pairs for mouse IgE antibodies were purchased from PharMingen (San Diego, Calif.), and the IgE enzyme-linked immunosorbent assay (ELISA) was performed according to the manufacturer's directions. Duplicate samples in plasma were diluted to 1:100. IgE levels in each sample were measured from optical density readings at 450 nm, and IgE concentrations were calculated from a standard curve that was generated using recombinant IgE (5-2,000 ng/ml). The amount of IL-4 and IL-13 contained in BALF was measured with a specific mouse ELISA kit (R&D Systems; Minneapolis, Minn.). The detection limit of the assays was 250 pg/ml.

[4] = system: OVA-sensitized/challenged mouse model; test: Airway hyperresponsiveness (AHR), Penh values in OVA-challenged mice; assay type: in vivo, BALB/c mice; details: 24 hours after final OVA challenge; FIG. 1
Description: The AHR was evaluated by calculation Penh values (enhanced pause) 24 hours after the final OVA challenge.
as §3
as §4, with “asthma. […]” for “asthma.”

Row | Structure (SMILES) | Cell viability (%) (Promyelotic HL-60 cells; 50 μM) | Cell viability (%) (Promyelotic HL-60 cells; 100 μM) | viability at 4 h, 50 µM ([1]; 50 μM) | viability at 4 h, 100 µM ([1]; 100 μM) | decrease in eosinophils in BALF (OVA-challenged mice [2]) | decrease in total cells in BALF (OVA-challenged mice [2]) | decrease in IL-13 in BALF (IL-13) | decrease in IL-4 in BALF (IL-4) | mucus area score (OVA-challenged mice [3]) | IgE level in BALF (IgE) | IgE level in plasma (IgE) | Penh value compared with OVA-treated group (in words) [4] | infiltration of eosinophil-rich leukocytes in lung tissue (H&E) (OVA-challenged mice [3]; compared with OVA-treated mice, 48 hours after last challenge, FIG. 3) | mucus in bronchial airways (PAS staining) (OVA-challenged mice [3]; compared with OVA-treated mice, FIG. 4)
1 | COc1ccc(C(=O)O[C@H]2[C@@H]3C=CO[C@@H](O[C@@H]4O[C@H](CO)[C@@H](O)[C@H](O)[C@H]4O)[C@@H]3[C@@]3(CO)O[C@@H]23)cc1OC [6-O-veratroyl catalpol, 6-O-(3,4-dimethoxybenzoyl) catalpol] | 116% | 114% |  |  |  |  |  |  |  |  |  |  |  | 
2 | COc1ccc(/C=C/C(=O)O[C@H]2[C@@H]3C=CO[C@@H](O[C@@H]4O[C@H](CO)[C@@H](O)[C@H](O)[C@H]4O)[C@@H]3[C@@]3(CO)O[C@@H]23)cc1O [Minecoside, 6-O-3-hydroxy-4-methozycinnamoyl catalpol] |  |  | 98% | 95% |  |  |  |  |  |  |  |  |  | 
3 | CC(C)(O)c1ccccc1CC[C@@H](SCC1(CC(=O)O)CC1)c1cccc(/C=C/c2ccc3ccc(Cl)cc3n2)c1 [montelukast, reference compound] |  |  |  |  | 80.7±11.1% | 78.3±12.1% | 84.5±8.2% | 69.5±22.0% | 1.53±0.24 | 3.8 ± 0.7 ng/mL | 31.4 ± 14.2 µg/mL |  |  | 
4 | O=C(O[C@H]1[C@@H]2C=CO[C@@H](O[C@@H]3O[C@H](CO)[C@@H](O)[C@H](O)[C@H]3O)[C@@H]2[C@@]2(CO)O[C@@H]12)c1ccc(O)c(O)c1 [verproside, 6-O-3,4-Dihydroxybenzoyl catalpol] | 105% | 102% |  |  | 86.2±7.2% | 79.3±13.1% | 74.9±15.5% | 64.5±27.7% | 1.43±0.23 | 21.5 ± 11.2 ng/mL | 40.2 ± 13.2 µg/mL | significantly reduced | significantly attenuated | markedly diminished
